According to patent USRE37886E1, “1-(1,2-Disubstituted piperidinyl)-4-substituted piperazine derivatives” (Janssen Pharmaceuticals, N.V., priority 1995, dated 2002):

Tests used:
[1] = system: substance P induced plasma extravasation; assay: Antagonism of substance P induced plasma extravasation in guinea-pigs; format: in vivo; conditions: lowest active dose, female guinea-pigs; for LAD nose: compound 1 hour prior to substance P (2 mg/kg, femoral artery), blue colouring of nose 10 minutes after challenge; for LAD conjunctiva / LAD forepaws / LAD trachea / LAD urinary bladder: compound 1 hour prior to substance P; for LAD conjunctiva: blue colouring of conjunctiva 10 minutes after challenge; for LAD forepaws: blue colouring of forepaws 10 minutes after challenge; for LAD trachea: blue colouring of trachea 30 minutes after challenge; for LAD urinary bladder: blue colouring of urinary bladder 30 minutes after challenge
Summary of the method: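 Female guinea-pigs dosed with compound 1 hour before femoral-artery substance P (2 mg/kg) plus Evans Blue (30 mg/kg). Blue colouring of nose, forepaws and conjunctiva scored at 10 minutes, trachea and bladder at 30 minutes; value is lowest active dose (mg/kg).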

[2] = system: substance-P induced relaxation of the pig coronary arteries; assay: Antagonism of substance-P induced relaxation of the pig coronary arteries; format: cell-based; conditions: concentration at which 50% of the response to 10^−9 M substance P was inhibited, 30 minutes incubation, prostaglandin F2a precontracted segments
Summary of the method: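 Inverted pig coronary artery segments (endothelium outside) in Krebs-Henseleit, 37 °C, O2/CO2 95/5, precontracted with prostaglandin F2a (10^−5 M); substance P 3×10^−10 and 10^−9 M added cumulatively. Compound incubated 30 min before repeat challenge; IC50 is concentration inhibiting 50% of the relaxation to 10^−9 M substance P.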

Compound	LAD nose [1]	LAD conjunctiva [1]	LAD forepaws [1]	LAD trachea [1]	LAD urinary bladder [1]	melting point	IC50 ([2]; Sus scrofa, 0.5 h)	IC50 [2]
O=C(c1cc(C(F)(F)F)cc(C(F)(F)F)c1)N1CC[C@H](N2CCN(Cc3ccccc3)CC2)C[C@@H]1Cc1ccccc1 (racemic) [Compound 16, (±)-cis-1-[3,5-bis(trifluoromethyl)benzoyl]-2-(phenylmethyl)-4-[4-(phenylmethyl)-1-piperazinyl]piperidine]	40.0 mg/kg	40.0 mg/kg	40.0 mg/kg	>40 mg/kg	>40 mg/kg	143.8 °C		
O=C(c1cc(C(F)(F)F)cc(C(F)(F)F)c1)N1CC[C@@H](N2CCN(Cc3ccccc3)CC2)C[C@@H]1Cc1ccccc1 (racemic) [Compound 17, (±)-trans-1-[3,5-bis(trifluoromethyl)benzoyl]-2-(phenylmethyl)-4-[4-(phenylmethyl)-1-piperazinyl]piperidine (E)-2-butenedioate(1:2)]	10.0 mg/kg	10.0 mg/kg	10.0 mg/kg	>40 mg/kg	10.0 mg/kg	240.3 °C	1.68 nM	
Cc1cc(C)cc(OC(=O)C(c2ccccc2)N2CCN([C@H]3CCN(C(=O)c4cc(C(F)(F)F)cc(C(F)(F)F)c4)[C@@H](Cc4ccccc4)C3)CC2)c1 (mixture of isomers) [Compound 43, (±)-3,5-dimethylphenyl cis-4-[1-[3,5-bis(trifluoromethyl)benzoyl]-2-(phenylmethyl)-4-piperidinyl]-α-phenyl-1-piperazineacetate]						88.1 °C	5.63 nM	
COc1ccccc1NC(=O)CN1CCN(C2CCN(C(=O)c3cc(C(F)(F)F)cc(C(F)(F)F)c3)C(Cc3ccccc3)C2)CC1 (stereo not drawn) [Compound 38]	10.0 mg/kg	10.0 mg/kg	10.0 mg/kg	>40 mg/kg	>40 mg/kg			0.86 nM
O=C(CN1CCN(C2CCN(C(=O)c3cc(C(F)(F)F)cc(C(F)(F)F)c3)C(Cc3ccccc3)C2)CC1)NC1(c2ccccc2)CCCCC1 (stereo not drawn) [Compound 48]	2.50 mg/kg	2.50 mg/kg	2.50 mg/kg	2.50 mg/kg	2.50 mg/kg			0.26 nM
O=C(CN1CCN(C2CCN(C(=O)c3cc(C(F)(F)F)cc(C(F)(F)F)c3)C(Cc3ccccc3)C2)CC1)NC1(c2ccccc2)CCCCC1 (stereo not drawn) [Compound 49]	2.50 mg/kg	2.50 mg/kg	2.50 mg/kg	10.0 mg/kg	>40 mg/kg			0.59 nM
Cc1cc(C)cc(NC(=O)CN2CCN(C3CCN(C(=O)c4cc(C(F)(F)F)cc(C(F)(F)F)c4)C(Cc4ccccc4)C3)CC2)c1 (stereo not drawn) [Compound 50]	10.0 mg/kg	10.0 mg/kg	10.0 mg/kg	10.0 mg/kg	>40 mg/kg			2.43 nM
Cc1cccc(C)c1NC(=O)CN1CCN(C2CCN(C(=O)c3cc(C(F)(F)F)cc(C(F)(F)F)c3)C(Cc3ccccc3)C2)CC1 (stereo not drawn) [Compound 53]	1.25 mg/kg	1.25 mg/kg	1.25 mg/kg	2.50 mg/kg	2.50 mg/kg			0.35 nM
(+)-(B)-trans-4-[1-[3,5-bis(trifluoromethyl)benzoyl]-2-(phenylmethyl)-4-piperidinyl]-N-(2,6-dimethylphenyl)-1- piperazine acetamide [Compound 27]	0.63 mg/kg	0.63 mg/kg	0.63 mg/kg	0.63 mg/kg	0.63 mg/kg			0.13 nM
(−)-(A)-trans-4-[1-[3,5-bis(trifluoromethyl) benzoyl]-2-(phenylmethyl)-4-piperidinyl]-N-(2,6-dimethylphenyl)-1-piperazine acetamide [Compound 26]	10.0 mg/kg	20.0 mg/kg	10.0 mg/kg	40.0 mg/kg	20.0 mg/kg			2.75 nM
